Experimental data: ChEMBL document CHEMBL3588849, “New indole-isoxazolone derivatives: Synthesis, characterisation and in vitro SIRT1 inhibition studies” (Bioorg Med Chem Lett, 2015)
Values belong to the compound of their own block, whether it stands above or below them.

Assays:
HEK293 = test: (§1) Cytotoxicity against HEK293 cells after 72 hrs by MTT assay; type: cell-based; settings: human, hek293, 72 h
MDA-MB-231 = test: Cytotoxicity against human MDA-MB-231 cells after 72 hrs by MTT assay; type: functional, cell-based; settings: MDA-MB-231, 72 h
MCF7 = test: Cytotoxicity against human MCF7 cells after 72 hrs by MTT assay; type: functional, cell-based; settings: MCF7, 72 h
HT-29 = test: Cytotoxicity against human HT-29 cells after 72 hrs by MTT assay; type: functional, cell-based; settings: HT-29, 72 h
[1] = target: T1, NAD-dependent protein deacetylase sirtuin-1 (Homo sapiens, UniProt Q96EB6); test: Inhibition of SIRT1 (unknown origin) using AMC-Arg-His-Lys-Lys(Ac) substrate assessed as deacetylation of substrate by fluorimetric enzyme assay
T1 sequence (Q96EB6 whole entry): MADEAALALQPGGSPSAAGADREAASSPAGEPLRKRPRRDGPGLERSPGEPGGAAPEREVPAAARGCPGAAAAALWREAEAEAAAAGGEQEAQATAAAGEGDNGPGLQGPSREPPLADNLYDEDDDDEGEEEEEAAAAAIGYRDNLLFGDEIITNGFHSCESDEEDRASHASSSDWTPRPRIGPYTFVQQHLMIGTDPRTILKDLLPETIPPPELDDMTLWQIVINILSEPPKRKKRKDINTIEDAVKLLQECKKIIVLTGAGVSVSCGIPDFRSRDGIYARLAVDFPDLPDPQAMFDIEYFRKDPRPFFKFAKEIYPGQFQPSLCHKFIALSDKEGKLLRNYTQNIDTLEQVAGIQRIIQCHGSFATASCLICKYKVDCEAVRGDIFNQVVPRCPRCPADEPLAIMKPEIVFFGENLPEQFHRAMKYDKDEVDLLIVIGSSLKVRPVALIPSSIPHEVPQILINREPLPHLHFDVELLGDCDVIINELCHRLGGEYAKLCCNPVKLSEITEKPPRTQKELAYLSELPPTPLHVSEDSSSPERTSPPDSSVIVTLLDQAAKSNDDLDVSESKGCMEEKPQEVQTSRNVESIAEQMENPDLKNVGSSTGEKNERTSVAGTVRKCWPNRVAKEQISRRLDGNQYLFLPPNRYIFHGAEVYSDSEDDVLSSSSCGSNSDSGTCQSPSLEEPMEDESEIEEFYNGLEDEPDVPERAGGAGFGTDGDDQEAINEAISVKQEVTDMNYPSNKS

[2] = as §1; type: cell-based; settings: human, HEK293 cells; read-out: GI

Structure (SMILES): CC1=NOC(=O)/C1=C/c1c(C(=O)NCc2ccc(F)cc2)n(C)c2ccc(F)cc12
Activity (HEK293): Non-toxic

Structure (SMILES): Cn1c(COCc2cn(Cc3ccc(C#N)cc3)nn2)c(/C=C2/C(=O)ON=C2C(F)(F)F)c2cc(F)ccc21
Activity (HEK293): Non-toxic

Structure (SMILES): CC1=NOC(=O)/C1=C/c1c(C(=O)Nc2ccc(OC(F)(F)F)cc2)n(C)c2ccc(F)cc12
Activity (HEK293): Non-toxic

Structure (SMILES): CC1=NOC(=O)/C1=C/c1c(C(=O)NCc2ccc(C)cc2)n(C)c2ccc(F)cc12
Activity (HEK293): Non-toxic

IC50 [1]: 35.2 µM
Structure (SMILES): CC1=NOC(=O)/C1=C/c1c(COCc2ccc(C(F)(F)F)cc2)n(C)c2ccc(F)cc12
Activity (HEK293): Non-toxic | IC50 (MDA-MB-231): 8.23 µM | IC50 (MCF7): 7.72 µM | IC50 (HT-29): 4.82 µM

Structure (SMILES): Cn1c(COCc2cn(Cc3ccc([N+](=O)[O-])cc3)nn2)c(/C=C2/C(=O)ON=C2C(F)(F)F)c2cc(F)ccc21
Activity (HEK293): Non-toxic

Structure (SMILES): CC1=NOC(=O)/C1=C/c1c(C(=O)N2CCOCC2)n(C)c2ccc(F)cc12
Activity (HEK293): Non-toxic

Structure (SMILES): CC1=NOC(=O)/C1=C/c1c(C(=O)NCc2ccc(OC(F)(F)F)cc2)n(C)c2ccc(F)cc12
Activity (HEK293): Non-toxic

Structure (SMILES): Cn1c(C(=O)NCc2ccc(F)cc2)c(/C=C2/C(=O)ON=C2C(F)(F)F)c2cc(F)ccc21
Activity (HEK293): Non-toxic

IC50 [1]: 37.4 µM
Structure (SMILES): Cn1c(COCc2ccc(C(F)(F)F)cc2)c(/C=C2/C(=O)ON=C2C(F)(F)F)c2cc(F)ccc21
Activity (HEK293): Non-toxic | IC50 (MDA-MB-231): 5.03 µM | IC50 (MCF7): 5.51 µM | IC50 (HT-29): 2.59 µM

Structure (SMILES): Cn1c(C(=O)N2CCOCC2)c(/C=C2/C(=O)ON=C2C(F)(F)F)c2cc(F)ccc21
Activity (HEK293): Non-toxic

Structure (SMILES): CCN1CCN(C(=O)c2c(/C=C3/C(=O)ON=C3C(F)(F)F)c3cc(F)ccc3n2C)CC1
inhibition at 72 h [2]: 30%

Structure (SMILES): CC1=NOC(=O)/C1=C/c1c(COCc2cn(Cc3ccc(C(F)(F)F)cc3)nn2)n(C)c2ccc(F)cc12
inhibition at 72 h [2]: 30%

Structure (SMILES): Cn1c(COCc2cn(Cc3ccc(OC(F)(F)F)cc3)nn2)c(/C=C2/C(=O)ON=C2C(F)(F)F)c2cc(F)ccc21
Activity (HEK293): Non-toxic

Structure (SMILES): CCN1CCN(C(=O)c2c(/C=C3/C(=O)ON=C3C)c3cc(F)ccc3n2C)CC1
Activity (HEK293): Non-toxic

Structure (SMILES): CC1=NOC(=O)/C1=C/c1c(COCc2cn(Cc3ccc(C#N)cc3)nn2)n(C)c2ccc(F)cc12
Activity (HEK293): Non-toxic

Structure (SMILES): Nc1ccn([C@@H]2O[C@H](CO)[C@@H](O)C2(F)F)c(=O)n1 [GEMCITABINE]
IC50 (MDA-MB-231): 0.65 µM | IC50 (MCF7): 0.15 µM | IC50 (HT-29): 0.52 µM

Structure (SMILES): CC1=NOC(=O)/C1=C/c1c(COCc2ccc(C#N)cc2)n(C)c2ccc(F)cc12
Activity (HEK293): Non-toxic

Structure (SMILES): CC1=NOC(=O)/C1=C/c1c(COCc2cn(Cc3ccc(OC(F)(F)F)cc3)nn2)n(C)c2ccc(F)cc12
Activity (HEK293): Non-toxic
